{
  "source": "paper PMC10584170",
  "about": "“Machine learning-based phenotypic imaging to characterise the targetable biology of Plasmodium falciparum male gametocytes for the development of transmission-blocking antimalarials” (PLOS Pathogens, 2023)",
  "key": {"[1]": {"system": "P. falciparum female gametocytes", "test": "P. falciparum Dual Gamete Formation Assay (PfDGFA), female readout (Pfs25-positive female gametes)", "format": "cell-based, Plasmodium falciparum NF54", "conditions": "for IC50: this study, read-out: Pf DGFA IC50 FEM", "outline": "(§1)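 NF54 mature gametocytes (d14), cpd 24 h 37°C hypoxic gas; trigger: xanthurenic acid ookinete medium + Cy3 anti-Pfs25, 4°C 4 min → 28°C 4 min. Male: exflagellation centres, brightfield x6. Female: Pfs25+ gametes, fluorescence, +24 h 28°C dark.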"}, "HepG2 cells [2]": {"system": "HepG2 cells", "conditions": "cited from earlier work; for FGAA TOX50 HepG2: HepG2 value reported with the FGAA screen, ref Miguel-Blanco et al 2017; for ODA TOX50 HepG2: HepG2 value reported with the ODA screen, ref Delves et al 2019"}, "HepG2 cells [3]": {"system": "HepG2 cells", "test": "HepG2 cytotoxicity counter-screen", "conditions": "for Mean TOX: mean of the HepG2 TOX50 values"}, "[4]": {"system": "P. falciparum male gametocytes", "test": "PhIDDLI screening assay, 24 h preincubation at 10xIC50, tubulin/DAPI imaging of male gametogenesis", "format": "cell-based, Plasmodium falciparum NF54", "conditions": "approximately 10xIC50, fixed 20 min post-induction", "method": "Mature gametocytes were treated for 24h with approximately 10xIC50 of test compounds or DMSO as a solvent control. Male gametogenesis was then induced by lowering the temperature from 37°C to ~20°C and adding xanthurenic acid. 20min later, when male gametogenesis (exflagellation) could be expected to peak, all samples were fixed. A sample of non-induced DMSO-treated gametocytes was fixed with 4% paraformaldehyde to provide an unactivated gametocyte control for comparison. The cells were then processed for immunofluorescence using an antibody against alpha-tubulin II and DNA staining with 4′,6-diamidino-2-phenylindole (DAPI) and visualised by fluorescence microscopy. Tubulin-bright cells from each treated sample were imaged and captured at random.\nCells were identified using a semi-automated pipeline established in the ICY BioImageAnalysis (https://icy.bioimageanalysis.org/) protocols module. Images and accompanying bounding boxes representing the outlines of identified cells were then passed to the PhIDDLI pipeline. PhIDDLI consists of several open source image processing and AI/ML modules connected for seamless processing, clustering and visualisation of cellular phenotypes (Fig 3A). […] To focus on the overall cellular phenotype rather than potentially confounding variable immunostaining intensities between experimental replicates, cells were transformed so that the range of staining intensities for each channel were normalised to fall between a 0–255 pixel intensity value. Then, using the Albumentations module (https://albumentations.ai/) to augment the dataset and control for cells in different orientations, each extracted cell image was rotated 90, 180 and 270 degrees and mirrored so that each cell was represented eight different times in the dataset. The augmented images were then passed to the EffcientNet-B1 module (https://github.com/tensorflow/tpu/tree/master/models/official/efficientnet) (a pretrained neural network developed for image processing) which extracted 1,000 distinct numerical features from each individual cell image. The EfficientNet-B1 was selected from amongst the other EfficientNet models due to its input image size (240 pixels) best matching the size of the individual cell images in the dataset, therefore ensuring maximal input data whilst allowing acceptable computation time on a desktop computer. […]\nMature gametocyte cultures were divided into 100 μl “microcultures” in pre-warmed 1.5 ml tubes also containing 100 μl complete culture medium with test compounds at a final concentration of 10xIC50 or 0.5% DMSO as a solvent control. Tubes were gassed and incubated at 37°C for 24 h. The entire compound library was screened once, spread over four different experiments, each with two DMSO control tubes. An 8% formaldehyde solution was prepared by diluting 16% methanol-free formaldehyde in an equal volume of phosphate-buffered saline (PBS). In each experiment, one DMSO control tube was fixed with equal volume of 8% formaldehyde (4% final concentration) at 37°C to provide an “unactivated” gametocyte control. Gametogenesis was then triggered in the remaining DMSO control tube and all compound tubes by adding 10 μl ookinete medium, and they were immediately incubated at room temperature. After 20 min (when exflagellation is maximal), all remaining tubes were fixed for 30 min.\n100 μl of the fixed cell suspensions were added to wells of a 24 well plate containing 1ml PBS and a poly-l-lysine-coated glass coverslip."}, "[5]": {"system": "P. falciparum male gametocytes", "test": "P. falciparum Dual Gamete Formation Assay (PfDGFA), male readout (exflagellation)", "format": "cell-based, Plasmodium falciparum NF54", "conditions": "for IC50: this study, read-out: Pf DGFA IC50 MALE", "outline": "as §1"}, "[6]": {"system": "P. falciparum female gametocytes", "test": "P. falciparum Female Gametocyte Activation Assay (PfFGAA)", "format": "cell-based, Plasmodium falciparum", "conditions": "Mean TOX HepG2 over FGAA IC50; GREEN = >10-fold; RED = <10-fold"}, "[7]": {"system": "P. falciparum female gametocytes", "design": "method as in Miguel-Blanco et al 2017", "conditions": "ref Miguel-Blanco et al 2017; read-out: Pf female gametogenesis FGAA IC50; cited from earlier work"}},
  "note": "Read-outs that look alike come from different tables or passages of the source.",
  "data": [
    {"smiles": "CC(C)(CN)c1nc(-c2ccc(Br)c(O)c2)c(-c2ccncc2)[nH]1.Cl", "note": "[TC13]", "values": [
      {"measurement": "Cytotox ratio Pf Female", "setting": "[1]", "result": 112.9},
      {"measurement": "IC50", "setting": "[1]", "result": 570, "unit": "nM"},
      {"measurement": "FGAA TOX50 HepG2", "setting": "HepG2 cells [2]", "result": 45.82, "unit": "µM"},
      {"measurement": "ODA TOX50 HepG2", "setting": "HepG2 cells [2]", "result": 47.315, "unit": "µM"},
      {"measurement": "DGFA Tox50 HepG2", "setting": "HepG2 cells [3]; HepG2 value reported with the DGFA screen", "result": 100, "unit": "µM"},
      {"measurement": "Mean TOX", "setting": "HepG2 cells [3]", "result": 64.38, "unit": "µM"},
      {"measurement": "Cellular phenotype of male gametocytes", "setting": "[4]", "result": "unactivated phenotype consistent with total arrest of gametogenesis"},
      {"measurement": "Cytotox ratio Pf Male", "setting": "[5]", "result": 43.5},
      {"measurement": "IC50", "setting": "[5]", "result": 1480, "unit": "nM"},
      {"measurement": "Cytotox ratio Pf FGAA", "setting": "[6]", "result": 76.6},
      {"measurement": "IC50", "setting": "[7]", "result": 840, "unit": "nM"}
    ]},
    {"smiles": "Cl.NCC1(c2nc(-c3ccc(Cl)c(O)c3)c(-c3ccncc3)[nH]2)CCCCC1", "note": "[TC41]", "values": [
      {"measurement": "Cytotox ratio Pf Female", "setting": "[1]", "result": 53.2},
      {"measurement": "IC50", "setting": "[1]", "result": 430, "unit": "nM"},
      {"measurement": "FGAA TOX50 HepG2", "setting": "HepG2 cells [2]", "result": 11.9, "unit": "µM"},
      {"measurement": "ODA TOX50 HepG2", "setting": "HepG2 cells [2]", "result": 46.774, "unit": "µM"},
      {"measurement": "Mean TOX", "setting": "HepG2 cells [3]", "result": 22.85, "unit": "µM"},
      {"measurement": "Cellular phenotype of male gametocytes", "setting": "[4]", "result": "unactivated phenotype consistent with total arrest of gametogenesis"},
      {"measurement": "Cytotox ratio Pf Male", "setting": "[5]", "result": 26.9},
      {"measurement": "IC50", "setting": "[5]", "result": 850, "unit": "nM"},
      {"measurement": "Cytotox ratio Pf FGAA", "setting": "[6]", "result": 108.8},
      {"measurement": "IC50", "setting": "[7]", "result": 210, "unit": "nM"}
    ]},
    {"smiles": "CC(C)(CNC(=O)[C@H]1CCCCN1)c1nc(-c2ccc(Cl)c(O)c2)c(-c2ccncc2)[nH]1.Cl", "note": "[TC04]", "values": [
      {"measurement": "Cytotox ratio Pf Female", "setting": "[1]", "result": 39.8},
      {"measurement": "IC50", "setting": "[1]", "result": 1020, "unit": "nM"},
      {"measurement": "FGAA TOX50 HepG2", "setting": "HepG2 cells [2]", "result": 28.96, "unit": "µM"},
      {"measurement": "Mean TOX", "setting": "HepG2 cells [3]", "result": 40.64, "unit": "µM"},
      {"measurement": "Cellular phenotype of male gametocytes", "setting": "[4]", "result": "unactivated phenotype consistent with total arrest of gametogenesis"},
      {"measurement": "Cytotox ratio Pf Male", "setting": "[5]", "result": 24.9},
      {"measurement": "IC50", "setting": "[5]", "result": 1630, "unit": "nM"},
      {"measurement": "Cytotox ratio Pf FGAA", "setting": "[6]", "result": 76.7},
      {"measurement": "IC50", "setting": "[7]", "result": 530, "unit": "nM"}
    ]}
  ]
}
